The values below come from patent US12527779B2, “Prostaglandin E2 (PGE2) EP4 receptor antagonists” (Domain Therapeutics, priority 2019, dated 2026).

The structures appear in SMILES notation. Where a name gives a salt, the structure may show the parent alone. Some results are limits rather than exact numbers.

The target of the test is T1, human EP4 (hEP4) receptor (Homo sapiens, UniProt P35408).
T1 construct: expressed in transfected cells; host or cells: HEK-293 T cells, transient co-transfection with polyethylenimine
T1 sequence (P35408 whole entry): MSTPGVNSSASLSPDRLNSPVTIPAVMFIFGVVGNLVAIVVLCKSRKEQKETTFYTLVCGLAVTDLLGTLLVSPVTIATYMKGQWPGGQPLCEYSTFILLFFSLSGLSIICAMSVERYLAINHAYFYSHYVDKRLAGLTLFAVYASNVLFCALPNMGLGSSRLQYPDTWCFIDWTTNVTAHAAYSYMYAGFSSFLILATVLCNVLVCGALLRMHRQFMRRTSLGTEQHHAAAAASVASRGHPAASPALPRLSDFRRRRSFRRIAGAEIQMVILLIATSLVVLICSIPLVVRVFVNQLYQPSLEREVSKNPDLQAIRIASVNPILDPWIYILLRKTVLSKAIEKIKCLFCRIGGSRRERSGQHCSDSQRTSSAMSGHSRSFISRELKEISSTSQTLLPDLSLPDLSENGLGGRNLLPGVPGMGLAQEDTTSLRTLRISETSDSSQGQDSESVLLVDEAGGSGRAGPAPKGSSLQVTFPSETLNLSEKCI
Nature of the test: In vitro human EP4 functional antagonist activity using BRET biosensors (cAMP EPAC biosensor, TCS2510 stimulation). The class given is cell-based. To be noted: antagonist activity vs EC60 TCS2510, hEP4 in HEK-293 T cells. How it is done:
Examples of the present invention were tested successively for their agonist and antagonist activities on human EP4 (hEP4) receptor transiently over-expressed in HEK-293 T cells. […] The assay used to measure compound activity is based on the BRET technology. The unimolecular cAMP biosensor used to detect intracellular cAMP levels following GPCR stimulation consists of the EPAC protein fused to N- and C-terminal of Luciferase and GFP respectively.
Cell Culture and Transfection: HEK-293 T cells are maintained in Dulbecco's Modified Eagle's Medium supplemented with 10% Foetal Calf Serum, 1% Penicillin/Streptomycin at 37° C./5% CO2. Cells are co-transfected using polyethylenimine (25 kDa linear) with two DNA plasmids encoding hEP4, EPAC fused to luciferase (BRET donor) and to GFP (BRET acceptor). After transfection, cells are cultured (40,000 cells per well) for 48 h at 37° C./5% CO2.
BRET assay: Receptor activity is detected by changes in BRET signal. On the day of the assay, cells are rinsed and incubated in assay buffer (1.8 mM CaCl2, 1 mM MgCl2, 2.7 mM KCl, 137 mM NaCl, 0.4 mM NaH2PO4, 5.5 mM D-Glucose, 11.9 mM NaHCO3, 25 mM Hepes). Then, plates are equilibrated 1 h at 22° C. before adding compounds. Compounds and luciferase substrate are added to the cells using an automated device (Freedom Evo®, Tecan) and BRET readings are collected on EnVision (PerkinElmer) with specific filters (410 nm BW 80 nm, 515 nm BW 30 nm). Agonist and antagonist activities of compounds are consecutively evaluated on the same cell plate. Agonist activity is first measured after 5 min incubation with compound alone on the cells. Then, cells are stimulated by an EC60 TCS2510 concentration and luminescence is recorded for additional 10 min. EC60 TCS2510 concentration is the concentration giving 60% of the maximal TCS2510 response. Agonist or antagonist activities are evaluated in comparison to basal signals evoked by assay buffer or EC60 TCS2510 alone, respectively.
For IC50 determination, a dose-response test is performed using 10 concentrations (ranging over 4.5 logs) of each compound. Dose-response curves are fitted using the sigmoidal dose-response (variable slope) analysis in GraphPad Prism software (GraphPad Software) and IC50 of antagonist activity is calculated. Dose-response experiments are performed in duplicate, in two independent experiments. IC50 values are categorized as following: A: IC50<0.1 μM; B: IC50<1 μM.
(In BRET a luciferase serves as donor, and the signal depends on an acceptor being close.)
With `COc1cccc(O[C@@H]2CCN(C3(C(=O)N[C@@H](C)c4ccc(C(=O)O)cc4)CCOCC3)C2)c1` [Example 148, 4-[(1S)-1-[[4-[(3R)-3-(3-Methoxyphenoxy)pyrrolidin-1-yl]tetrahydropyran-4-carbonyl]amino]ethyl]benzoic acid, hydrochloride], the concentration for half-maximal inhibition (IC50) (as a rule, the concentration at which inhibition is half-maximal) is less than 100 nM.

With `C[C@H](NC(=O)C1(N(C)CCOc2ccccc2)CCCC1)c1ccc(C(=O)O)cc1` [Example 62, 4-[(1S)-1-[[1-[Methyl(2-phenoxyethyl)amino]cyclopentanecarbonyl]amino]ethyl]benzoic acid, hydrochloride], the IC50 was less than 100 nM.

`C[C@H](NC(=O)C1(CCCOc2ccccc2)CCOCC1)c1ccc(C(=O)O)cc1` [Example 81, 4-[(1S)-1-[[4-(3-Phenoxypropyl)tetrahydropyran-4-carbonyl]amino]ethy]benzoic Acid] had an IC50 of less than 100 nM.

Turning to `C[C@H](NC(=O)C1(N(C)CCOc2ccccc2)CCCOC1)c1ccc(C(=O)O)cc1` (stereo partly drawn) [Example 73, 4-[(1S)-1-[[3-[Methyl(2-phenoxyethyl)amino]tetrahydropyran-3-carbonyl]amino]ethyl]benzoic acid, hydrochloride], the concentration for half-maximal inhibition (IC50) is less than 1000 nM.

The compound `Cc1cccc([C@H](C)NC(=O)C2(N3CC[C@@H](Oc4cccc(C(F)(F)F)c4)C3)CCOCC2)c1` [Example 194, N—((S)-1-(3-Methylphenyl)ethyl)-4-((R)-3-(3-(trifluoromethyl)phenoxy)pyrrolidin-1-yl)tetrahydro-2H-pyran-4-carboxamide, hydrochloride] registered an IC50 of less than 1000 nM.

`C[C@H](NC(=O)C1(c2cccc(OCC3CCOCC3)c2)CCOCC1)c1ccc(C(=O)O)cc1` [Example 98, 4-[(1S)-1-[[4-[3-(Tetrahydropyran-4-ylmethoxy)phenyl]tetrahydropyran-4-carbonyl]amino]ethyl]benzoic acid] came in with an IC50 of less than 1000 nM.

Turning to `CN(CCOc1ccccc1)C1(C(=O)NC2(c3ccc(C(=O)O)cn3)CC2)CCOCC1` [Example 54, 6-[1-[[4-[Methyl(2-phenoxyethyl)amino]tetrahydropyran-4-carbonyl]amino]cyclopropyl]pyridine-3-carboxylic acid, hydrochloride], the IC50 was less than 1000 nM.

`C[C@H](NC(=O)C1(c2cc(OCC3CCCCC3)ccn2)CCOCC1)c1ccc(C(=O)O)cc1` [Example 117, 4-[(1S)-1-[[4-[4-(Cyclohexylmethoxy)-2-pyridyl]tetrahydropyran-4-carbonyl]amino]ethyl]benzoic acid] displayed a concentration for half-maximal inhibition (IC50) of less than 1000 nM.

As to `CN(CCOc1ccc(F)cc1)C1(C(=O)NC2(c3ccc(C(=O)O)cc3)CC2)CCOCC1` [Example 34, 4-[1-[[4-[2-(4-Fluorophenoxy)ethyl-methyl-amino]tetrahydropyran-4-carbonyl]amino]cyclopropyl]benzoic acid, hydrochloride], the IC50 is less than 100 nM.

For the compound `CCCC(C)COc1ccc(C2(C(=O)N[C@@H](C)c3ccc(C(=O)O)cc3)CCOCC2)cc1` (stereo partly drawn) [Example 84, 4-[(1S)-1-[[4-[4-(2-Methylpentoxy)phenyl]tetrahydropyran-4-carbonyl]amino]ethyl]benzoic acid], the IC50 was less than 1000 nM.

Turning to `CN(CCOc1ccccc1)C1(C(=O)NC2(c3ccc(C(=O)O)cc3F)CC2)CCOCC1` [Example 50, 3-Fluoro-4-[1-[[4-[methyl(2-phenoxyethyl)amino]tetrahydropyran-4-carbonyl]amino]cyclopropyl]benzoic acid, hydrochloride], the IC50 was less than 100 nM.

As for `C[C@H](NC(=O)C1(c2ccc(OCc3cccnc3)cc2)CCOCC1)c1ccc(C(=O)O)cc1` [Example 96, 4-[(1S)-1-[[4-[4-(3-Pyridylmethoxy)phenyl]tetrahydropyran-4-carbonyl]amino]ethyl]benzoic acid], the 50% inhibitory concentration (IC50) was less than 1000 nM.

Compound `C[C@H](NC(=O)C1(c2cccc(OCc3ccccc3)c2)CCCC1)c1ccc(C(=O)O)cc1` [Example 113, 4-[(1S)-1-[[1-(3-Benzyloxyphenyl)cyclopentanecarbonyl]amino]ethyl]benzoic acid] showed a concentration for half-maximal inhibition (IC50) of less than 100 nM.

As to `C[C@H](NC(=O)C1(N2CC[C@@H](Oc3cccc(C(F)(F)F)c3)C2)CCOCC1)c1ccc(C(=O)O)cc1` [Example 144, 4-[(1S)-1-[[4-[(3R)-3-[3-(Trifluoromethyl)phenoxy]pyrrolidin-1-yl]tetrahydropyran-4-carbonyl]amino]ethyl]benzoic acid, hydrochloride], the IC50 was less than 100 nM.

Compound `C[C@H](NC(=O)C1(N2CC[C@@H](Oc3cccc(C(F)(F)F)c3)C2)CCC(F)(F)CC1)c1ccc(C(=O)O)cc1` [Example 163, 4-[(1S)-1-[[1-[(3R)-3-[3-(Trifluoromethyl)phenoxy]pyrrolidin-1-yl]-4,4-difluorocyclohexane-1-carbonyl]amino]ethyl]benzoic acid, hydrochloride] gave a half-inhibitory concentration (IC50) of less than 100 nM.

In turn, `COc1ccccc1[C@H](C)NC(=O)C1(N2CC[C@@H](Oc3cccc(C(F)(F)F)c3)C2)CCOCC1` [Example 197, N—((S)-1-(2-Methoxyphenyl)ethyl)-4-((R)-3-(3-(trifluoromethyl)phenoxy)pyrrolidin-1-yl)tetrahydro-2H-pyran-4-carboxamide, hydrochloride] showed an IC50 of less than 1000 nM.

`COc1cccc(OCCN(C)C2(C(=O)N[C@@H](C)c3ccc(C(=O)O)cc3)CCCCC2)c1` [Example 60, 4-[(1S)-1-[[1-[2-(3-Methoxyphenoxy)ethyl-methyl-amino]cyclohexanecarbonyl]amino]ethyl]benzoic acid, hydrochloride]: the IC50 is less than 100 nM.

The compound `C[C@H](NC(=O)C1(NCC2CCCCC2)CCOCC1)c1ccc(C(=O)O)cc1` [Example 21, 4-[(1S)-1-[[4-(Cyclohexylmethylamino)tetrahydropyran-4-carbonyl]amino]ethyl]benzoic acid, hydrochloride] had an IC50 of less than 1000 nM.

`O=C(O)c1ccc(C2(NC(=O)C3(N4CC[C@@H](Oc5ccccc5)C4)CCOCC3)CC2)cc1` [Example 153, 4-[1-[[4-((3R)-3-Phenoxypyrrolidin-1-yl)tetrahydropyran-4-carbonyl]amino]cyclopropyl]benzoic acid, hydrochloride] displayed an IC50 of less than 100 nM.

In turn, `COc1cccc(OCCNC2(C(=O)N[C@@H](C)c3ccc(C(=O)O)cc3)CCOCC2)c1` [Example 13, 4-[(1S)-1-[[4-[2-[3-Methoxyphenoxy]ethylamino]tetrahydropyran-4-carbonyl]amino]ethyl]benzoic acid, hydrochloride] yielded an IC50 of less than 100 nM.

On to `C[C@H](NC(=O)C1(N2CC[C@@H](Oc3cccc(C(F)(F)F)c3)C2)CCCCC1)c1ccc(C(=O)O)cc1` [Example 162, 4-[(1S)-1-[[1-[(3R)-3-[3-(Trifluoromethyl)phenoxy]pyrrolidin-1-yl]cyclohexane-1-carbonyl]amino]ethyl]benzoic acid, hydrochloride], for which the half-maximal inhibitory concentration (IC50) is less than 100 nM.

Regarding `O=C(O)c1ccc(C2(NC(=O)C3(NCCOc4cccc(Cl)c4)CCOCC3)CC2)cc1` [Example 28, 4-[1-[[4-[2-(3-Chlorophenoxy)ethylamino]tetrahydropyran-4-carbonyl]amino]cyclopropyl]benzoic acid, hydrochloride], the half-inhibitory concentration (IC50) was less than 100 nM.

On to `C[C@H](NC(=O)C1(c2cccc(OCC3CCCC3)c2)CCOCC1)c1ccc(C(=O)O)cc1` [Example 102, 4-[(1S)-1-[[4-[3-(Cyclopentylmethoxy)phenyl]tetrahydropyran-4-carbonyl]amino]ethyl]benzoic acid], for which the IC50 was less than 1000 nM.
